Reference: US11168072B2, “Crystal form of morpholino quinazoline compound, preparation method therefor and use thereof” (SHANGHAI YINGLI PHARMACEUTICAL CO., LTD, priority 2018, dated 2021)
Entries after “also recorded” stand apart in the source; their conditions may differ.

How the values were obtained:
Type in all cases: physicochemical
[1] = Stability of crystal form in water and organic solvents at room temperature for 10 days (suspension, XRPD)
Procedure: About 20 mg of solid samples of the crystal form I of the morpholino quinazoline compound represented by formula A were weighed respectively and placed into vials, 1 mL of water or organic solvent was added to the vials respectively, and sonicated for 5 min to obtain suspensions. The suspensions were spun at room temperature for 10 days and the filtered wet samples were characterized by XRPD.

[2] = Stability in organic solvents with slurrying at high temperature for 18 hours (XRPD); conditions: slurried in ethanol, isopropanol and n-heptane at 80° C. for 18 hours
Procedure: To 5 g of the crystal form I of the morpholino quinazoline compound represented by formula A was added 10 g of ethanol, 10 g of isopropanol, and 10 g of n-heptane. The mixture was slurried at 80° C. for 18 hours, cooled to room temperature, filtered, and dried under vacuum at less than 85° C. for 16 hours to obtain about 4 g of sample.

[3] = Stability under high temperature, high humidity, illumination (influencing factors); conditions: for stability under illumination conditions (conclusion): illumination 4500±500 Lux; for changes in the appearance: illumination, high temperature (60° C.) and high humidity (25° C., RH75%) for 10 days
Procedure: Appropriate amount of the samples of the crystal form I of the morpholino quinazoline compound represented by formula A were placed on culture dishes which were then left open under high temperature (40±2° C. and 60±2° C.), high humidity (25° C., RH75±5% and RH90±5%) and illumination (4500±500 Lux, 25° C.) conditions, respectively.
Appropriate amount of the samples of the amorphous form of the morpholino quinazoline compound represented by formula A and the samples of the crystal form II of the morpholino quinazoline compound represented by formula A were placed on culture dishes respectively, which were then left open under high temperature (60±2° C.), high humidity (25° C., RH75±5%) and illumination (4500±500 Lux, 25° C.) conditions, respectively.

[4] = Dynamic vapor sorption analysis (DVS); conditions: for increase by mass compared to the initial mass (DVS weight gain): relative humidity from 0% to 95%
Procedure: (§1) Dynamic vapor sorption analysis (DVS): about 10 mg of the sample was taken and dried for 60 minutes under a temperature set at 25° C. and a humidity of 0% RH, and then the moisture sorption characteristics of the sample when the humidity changed from 0% RH to 95% RH was tested, and the moisture desorption characteristics of the sample when the humidity changed from 95% RH to 0% RH was tested; the humidity change step was 5% RH; the value of the mass change rate dm/dt less than 0.002% was considered as balance equilibrium, the rate of mass change within 5 minutes less than 0.01%/minute was considered as the equilibrium standard in the testing process, and the maximum equilibrium time was 2 hours. The isothermal water adsorption/desorption characteristics under this test condition were determined and XRPD detection was performed on the samples after the DVS test.
as §1, with “About” for “Dynamic vapor sorption analysis (DVS): about”

[5] = illumination 4500 Lux ± 500 Lux, 25° C., 1 month
[6] = illumination 4500 Lux ± 500 Lux, 25° C., 5 days
[7] = illumination 4500 Lux ± 500 Lux, 25° C., 10 days
[8] = high temperature (60° C.) and high humidity (25° C., RH75%)
[9] = illumination (4500±500 Lux, 25° C.)

Structure (SMILES): COc1ncc(-c2nc(N3CCOCC3)nc3c(CN4CCC(C(C)(C)O)CC4)cc(F)cc23)cc1NS(C)(=O)=O [Crystal form I]
- stability in water and organic solvents (conclusion) ([1]; room temperature and high temperature): good stability
- crystal form of filtered wet sample by XRPD ([1]; suspension in water or organic solvents, room temperature, 10 days): did not change
- X-ray powder diffraction pattern versus crystal form I of Example 1 [2]: consistent
- stability under high temperature, high humidity and illumination conditions (conclusion) [3]: good stability
- Moisture (%) ([3]; 0 day): 0.07%
- Total impurities (%) ([3]; 0 day): 0.1%
- Moisture (%) ([3]; 25° C., RH 75 ± 5%, 1 month): 0.1%
- Total impurities (%) ([3]; 25° C., RH 75 ± 5%, 1 month): 0.1%
- Moisture (%) ([3]; 25° C., RH 75 ± 5%, 5 days): 0.1%
- Total impurities (%) ([3]; 25° C., RH 75 ± 5%, 5 days): 0.1%
- Moisture (%) ([3]; 25° C., RH 75 ± 5%, 10 days): 0.2%
- Total impurities (%) ([3]; 25° C., RH 75 ± 5%, 10 days): 0.1%
- Moisture (%) ([3]; 25° C., RH 90 ± 5%, 1 month): 0.1%
- Total impurities (%) ([3]; 25° C., RH 90 ± 5%, 1 month): 0.1%
- Moisture (%) ([3]; 25° C., RH 90 ± 5%, 5 days): 0.2%
- Total impurities (%) ([3]; 25° C., RH 90 ± 5%, 5 days): 0.1%
- Moisture (%) ([3]; 25° C., RH 90 ± 5%, 10 days): 0.2%
- Total impurities (%) ([3]; 25° C., RH 90 ± 5%, 10 days): 0.1%
- Moisture (%) ([3]; 40 ± 2° C., 1 month): 0.1%
- Total impurities (%) ([3]; 40 ± 2° C., 1 month): 0.1%
- Moisture (%) ([3]; 40 ± 2° C., 5 days): 0.1%
- Total impurities (%) ([3]; 40 ± 2° C., 5 days): 0.1%
- Moisture (%) ([3]; 40 ± 2° C., 10 days): 0.2%
- Total impurities (%) ([3]; 40 ± 2° C., 10 days): 0.1%
- Moisture (%) ([3]; 60 ± 2° C., 1 month): 0.1%
- Total impurities (%) ([3]; 60 ± 2° C., 1 month): 0.1%
- Moisture (%) ([3]; 60 ± 2° C., 5 days): 0.2%
- Total impurities (%) ([3]; 60 ± 2° C., 5 days): 0.1%
- Moisture (%) ([3]; 60 ± 2° C., 10 days): 0.2%
- Total impurities (%) ([3]; 60 ± 2° C., 10 days): 0.1%
- Moisture (%) [3, 5]: 0.1%
- Total impurities (%) [3, 5]: 0.2%
- Moisture (%) [3, 6]: 0.1%
- Total impurities (%) [3, 6]: 0.1%
- Moisture (%) [3, 7]: 0.1%
- Total impurities (%) [3, 7]: 0.1%
- hygroscopicity (conclusion) [4]: less hygroscopicity; also recorded: very low hygroscopicity
- increase by mass compared to the initial mass (DVS weight gain) ([4]; 25° C.): 0.34%
- increase by mass compared to the initial mass (DVS) ([4]; relative humidity from 0 to 90%, 25° C.): 0.23%

Structure (SMILES): COc1ncc(-c2nc(N3CCOCC3)nc3c(CN4CCC(C(C)(C)O)CC4)cc(F)cc23)cc1NS(C)(=O)=O [Amorphous form]
- Content (%) ([3]; 0 day): 98.60%
- Total impurities (%) ([3]; 0 day): 1.32%
- Total impurities (%) ([3]; 25° C., RH 75 ± 5%, 5 days): 1.37%
- Total impurities (%) ([3]; 25° C., RH 75 ± 5%, 10 days): 1.31%
- Content (%) ([3]; 60° C., 5 days): 98.43%
- Content (%) ([3]; 60° C., 10 days): 98.48%
- Total impurities (%) ([3]; 60 ± 2° C., 5 days): 1.54%
- Total impurities (%) ([3]; 60 ± 2° C., 10 days): 1.46%
- Content (%) ([3]; 75% RH (25° C.), 5 days): 98.51%
- Content (%) ([3]; 75% RH (25° C.), 10 days): 98.62%
- change of total impurities content [3, 8]: increases slightly
- Content (%) [3, 6]: 98.29%
- Total impurities (%) [3, 6]: 1.68%
- Content (%) [3, 7]: 97.80%
- Total impurities (%) [3, 7]: 2.16%
- stability under illumination conditions (conclusion) ([3]; 25° C.): unstable
- change of total impurities content [3, 9]: increases significantly
- changes in the appearance [3]: no significant changes

Structure (SMILES): COc1ncc(-c2nc(N3CCOCC3)nc3c(CN4CCC(C(C)(C)O)CC4)cc(F)cc23)cc1NS(C)(=O)=O [Crystal form II]
- Content (%) ([3]; 0 day): 96.65%
- Total impurities (%) ([3]; 0 day): 3.28%
- Total impurities (%) ([3]; 25° C., RH 75 ± 5%, 5 days): 3.18%
- Total impurities (%) ([3]; 25° C., RH 75 ± 5%, 10 days): 3.61%
- Content (%) ([3]; 60° C., 5 days): 95.85%
- Content (%) ([3]; 60° C., 10 days): 97.0%
- Total impurities (%) ([3]; 60 ± 2° C., 5 days): 4.04%
- Total impurities (%) ([3]; 60 ± 2° C., 10 days): 2.97%
- Content (%) ([3]; 75% RH (25° C.), 5 days): 96.75%
- Content (%) ([3]; 75% RH (25° C.), 10 days): 96.24%
- change of total impurities content [3, 8]: increases slightly
- Content (%) [3, 6]: 96.26%
- Total impurities (%) [3, 6]: 3.64%
- Content (%) [3, 7]: 95.80%
- Total impurities (%) [3, 7]: 4.14%
- stability under illumination conditions (conclusion) ([3]; 25° C.): unstable
- change of total impurities content [3, 9]: increases significantly
- changes in the appearance [3]: no significant changes
- increase by mass compared to the initial mass (DVS weight gain) ([4]; 25° C.): 6.237%
- increase by mass compared to the initial mass (DVS weight gain) ([4]; 25° C., listed as crystal type II): 6.237%
- weight gain of crystal form II relative to that of crystal form I ([4]; relative humidity from 0 to 95%): 18 times
